Counter-ions that a name gives are not always drawn.
How the values were obtained:
Format in all cases: binding, HIV-1
18C-18D duplex [1] = assay: UV melting (thermal denaturation) and ΔTm analysis, 18C-18D duplex; conditions: for Ka (ΔTm-derived association constant): extrapolated to 25° C.; for enhancement of thermal stability of the duplex (ΔTm): 18C-18D, drug to duplex ratio (rdup) 3.0, FIG. 3b
Description: All UV absorbance experiments were conducted on an AVIV Model 14DS Spectrophotometer (Aviv Associates; Lakewood, N.J.) equipped with a thermoelectrically controlled cell holder. A quartz cell with a 1 cm pathlength was used for all the absorbance studies. Absorbance versus temperature profiles were measured at 274 nm with a 6 sec averaging time. The temperature was raised in 0.5° C. increments, and the samples were allowed to equilibrate for 1 min at each temperature setting. In these thermal denaturation studies, 18C-18R and 18C-18D solutions were […] in duplex and contained aminoglycoside at concentrations ranging from 0 to 12 μM. The duplex solutions were preheated for 5 min at 85° C. and then cooled to room temperature prior to addition of the drug. The buffer solutions for the UV melting experiments contained 10 mM PIPES (pH 6.0) and 5 mM MgCl2. For each optically detected transition, the melting temperature (Tm) was determined. Marky, L. A. & Breslauer, K. J. Calculating thermodynamic data for transitions of any molecularity from equilibrium melting curves, Biopolymers 26, 1601-1620 (1987).
The ΔTm method described below was used to derive aminoglycoside-duplex association constants (Ka). Measured aminoglycoside-induced changes in the thermal stability of the host duplexes (FIG. 3) were used to estimate the apparent drug-duplex association constants at Tm (KTm) from the following expression (Crothers, D. M. Statistical thermodynamics of nucleic acid melting transitions with coupled binding equilibria, Biopolymers 10, 2147-2160 (1971)): [formula]
In this expression, TmO and Tm are the melting temperatures of the drug-free and drug-bound duplex, respectively, n is the number of drug molecules bound per duplex, ΔHdup is the enthalpy change for the melting of the duplex in the absence of bound drug, and L is the free drug concentration at Tm (which can be estimated by one half the total drug concentration). Values of ΔHdup for the 18C-18R and 18C-18D duplexes were determined from the shapes of their UV melting profiles using the following relationship (Marky, L. A. & Breslauer, K. J. Calculating thermodynamic data for transitions of any molecularity from equilibrium melting curves, Biopolymers 26, 1601-1620 (1987)): [formula]
where α is the fraction of single strand. This calculation yielded ΔHdup values of 157.8 kcal/mol for the 18C-18R duplex and 130.3 kcal/mol for the 18C-18D duplex. For meaningful comparisons, the calculated apparent binding constants at Tm should be extrapolated to a common reference temperature using the standard relationship: [formula]
where ΔHb is the enthalpy of drug binding.

18C-18R duplex = assay: Isothermal titration calorimetry (ITC), 18C-18R duplex; conditions: for ΔHb (binding enthalpy): 18C-18R duplex, ITC at 25° C.
Description: (§1) Isothermal calorimetric measurements were performed at 25° C. on a MicroCal VP-ITC (MicroCal, Inc., Northampton, Mass.). In a typical experiment, 5 μl aliquots of 500 μM aminoglycoside were injected from a 250 μl rotating (430 RPM) syringe into an isothermal sample chamber containing 1.31 mL of either a 18C-18R solution that was 10 μM in duplex or a 18C-18D solution that was 15 μM in duplex. Each experiment of this type was accompanied by the corresponding control experiment in which 5 μL aliquots of 500 μM drug were injected into a solution of buffer alone. The duration of each injection was 5 seconds and the delay between injections was 240 seconds. The initial delay prior to the first injection was 60 seconds. Each injection generated a heat burst curve (μcal/sec vs. sec). The area under each curve was determined by integration [using the Origin version 5.0 software (MicroCal, Inc., Northampton, Mass.)] to obtain a measure of the heat associated with that injection. The heat associated with each drug-buffer injection was subtracted from the corresponding heat associated with each drug-duplex injection to yield the heat of drug binding for that injection. The calorimeter was calibrated both electronically and chemically. Pilch, D. S., Kirolos, M. A., Liu, X., Plum, G. E. & Breslauer, K. J. Berenil [1,3-bis-(4′-amidinophenyl)triazene] binding to DNA duplexes and to a RNA duplex: Evidence for both intercalative and minor groove binding properties, Biochemistry 34, 9962-9976 (1995). All duplex solutions were preheated for 5 minutes at 85° C. and then cooled to room temperature prior to their use in the ITC experiments. The buffer solutions for the ITC experiments contained 10 mM PIPES (pH 6.0) and 5 mM MgCl2.
(§2) Table 1 summarizes the apparent association constants at 25° C. that were calculated using equations (1)-(3) for neomycin and paromomycin binding to the 18C-18R and 18C-18D duplexes. The drug binding enthalpies (ΔHb) required for extrapolation of the binding constants at Tm to common reference temperature of 25° C. using equation (3) were determined using isothermal titration calorinietry (ITC). […] Each of the heat burst curves in FIG. 4 corresponds to a single drug injection, with the seven injections resulting in a final drug to duplex ratio (rdup) of either 0.83 (when 18C-18D served as the target duplex) or 1.25 (when 18C-18R served as the target duplex). The areas under these heat burst curves were determined by integration to yield the associated injection heats. For each titration, the seven injection heats were similar in magnitude, an observation consistent with all of the injected drug being bound by the host duplex. These injection heats were corrected by subtraction of the corresponding dilution heats derived from the injection of identical amounts of drug into buffer alone. The resulting corrected injection heats then were divided by the total concentration of injected drug and averaged to yield the ΔHb values listed in Table 1.

18C-18D duplex [2] = assay: Isothermal titration calorimetry (ITC), 18C-18D duplex; conditions: for ΔHb (binding enthalpy): 18C-18D duplex, ITC at 25° C.
Description: as §1, §2

[3] = listed as Neomycin, trisulfate trihydrate

Row | Molecule | Ka (ΔTm-derived association constant) (18C-18D duplex [1]; 18C-18D duplex) | enhancement of thermal stability of the duplex (ΔTm) (18C-18D duplex [1]) | ΔHb (binding enthalpy) (18C-18R duplex) | ΔHb (binding enthalpy) (18C-18R duplex; listed as Paromomycin) | ΔHb (binding enthalpy) (18C-18D duplex [2]) | ΔHb (binding enthalpy) (18C-18D duplex [2]; listed as Paromomycin) | difference in affinity, neomycin greater than paromomycin (18C-18D duplex [1]; 18C-18D duplex) | ΔHb (binding enthalpy) (18C-18R duplex; [3]) | ΔHb (binding enthalpy) (18C-18R duplex; trisulfate trihydrate) | binding stoichiometry (18C-18R duplex; ITC, 18C-18R) | ΔHb (binding enthalpy) (18C-18D duplex [2]; [3]) | ΔHb (binding enthalpy) (18C-18D duplex [2]; trisulfate trihydrate) | binding stoichiometry (18C-18D duplex [2]; ITC, 18C-18D)
1 | NC[C@@H]1O[C@H](O[C@H]2[C@@H](O)[C@H](O[C@@H]3[C@@H](O)[C@H](N)C[C@H](N)[C@H]3O[C@H]3O[C@H](CO)[C@@H](O)[C@H](O)[C@H]3N)O[C@@H]2CO)[C@H](N)[C@@H](O)[C@@H]1O [paromomycin, paromomycin sulfate] | (1.9 ± 0.8) × 10^5 M^−1 | 1.1 °C | -4.5 kcal/mol | -4.5 ± 0.1 kcal/mol | -3.6 kcal/mol | -3.6 ± 0.1 kcal/mol | – | – | – | – | – | – | –
2 | Neomycin trisulfate trihydrate | (1.7 ± 0.3) × 10^6 M^−1 | 4.1 °C | – | – | – | – | 9 fold | -8.8 ± 0.1 kcal/mol | -8.8 kcal/mol | approximately five | -6.1 ± 0.1 kcal/mol | -6.1 kcal/mol | three
